Test results published in US3950346A, “Novel process for producing 2-ketoethylbenzomorphan derivatives and salts thereof” (Sumitomo Chemical Company, Limited, priority 1972, dated 1976).
Read-outs that look alike come from different tables or passages of the source.

Tests used:
[1] = Physical dependency test: abstinence syndrome (body weight decrease on the day after drug withdrawal following 4 weeks of administration); type: in vivo, rats (male, Wistar strain); set-up: key to Abstinence syndrome: +++: severe decrease (about 5% decrease); ++: moderate decrease; +: mild decrease; -: no decrease; settings: for Abstinence syndrome: 20 mg/kg/day, subcutaneously twice a day for 4 weeks, body weight decrease on next day after withdrawal, male Wistar rats; for addiction in long term animal tests / physical dependency: result in words; for physical dependency: orally or subcutaneously to rats everyday for 4 weeks
Description: Known 6,7-benzomorphan derivatives such as 2'-hydroxy-2,5,9-trimethyl-6,7-benzomorphan [cf. […] On account of this addiction liability, these analgesics are severely restricted in a therapeutic use.
Note: Groups of male rats of Wistar strain (body weight, 150 g at the beginning of the test), each group consisting of 20 male rats, were subcutaneously given the test compound twice a day for 4 consecutive weeks. On the next day after drug withdrawal, the body weight was measured. The symbols have the following meanings: +++, severe decrease (about 5% decrease); ++, moderate decrease; +, mild decrease; -, no decrease.

[2] = Subcutaneous writhing test (antagonism of the syndrome produced by intraperitoneal 0.6% aqueous acetic acid); type: in vivo; settings: mice, 20 minutes before acetic acid, Litchfield-Wilcoxon's method
Description: […]. Note: The test was based on the specific antagonism of the test compound to the typical syndrome produced by intraperitoneal injection of 0.6% aqueous acetic acid. The syndrome was characterized by intermittent contractions of the abdomen, twisting and turning of the trunk and extension of the hind legs. A group of 5 mice was used for each dose level. The test compound was administered subcutaneously 20 minutes before the injection of acetic acid. […] The ED50 value was calculated according to the Litchfield-Wilcoxon's method.

[3] = known, cf. U.S. Pat. No. 3,138,603; result in words; cited from earlier work
[4] = known, cf. U.S. Pat. No. 3,138,603; result in words; cited from earlier work; remark: listed apart in the source
[5] = Mus musculus, sc, read-out: ED50

| Compound | Abstinence syndrome [1] | addiction in long term animal tests [1] | physical dependency [1] | ED50 [2, 5] [mg/kg] | ED50 [2] [mg/kg] | analgesic activity [3] | addiction liability [4] |
| --- | --- | --- | --- | --- | --- | --- | --- |
| CCOC(=O)CCN1CCC2(C)c3cc(O)ccc3CC1C2C (stereo not drawn) [2'-Hydroxy-2-(β-ethoxycarbonylethyl)-5,9-dimethyl-6,7-benzomorphan] | - | do not show any addiction | did not produce any physical dependency | 16.1 |  |  |  |
| 2'-Hydroxy-2-(β-ethylcarbonylethyl)-5,9-dimethyl-6,7-benzomorphan | - | do not show any addiction | did not produce any physical dependency |  | 7.0 |  |  |
| CC1C2Cc3ccc(O)cc3C1(C)CCN2C (stereo not drawn) [2'-hydroxy-2,5,9-trimethyl-6,7-benzomorphan] | ++ |  |  |  |  | potent analgesic activity | show an addiction liability |
| CC(C)=CCN1CCC2(C)c3cc(O)ccc3CC1C2C (stereo not drawn) [Pentazocine, 2'-hydroxy-2-(3"-methyl-2"-butenyl)-5,9-dimethyl-6,7-benzomorphan, reference compound] |  |  |  | 17.5 |  |  |  |
